This is an account of results in patent US10660967B2, “Curcumin conjugates and methods of use thereof” (priority 2016, dated 2020).

Read-outs that look alike come from different tables or passages of the source.

Assay [1] deals with PHA-stimulated splenocytes. Briefly: Proliferative response of PHA-stimulated splenocytes (MTT assay). The class given is cell-based. The settings on record: PHA 5 μg/ml, 72 hr; compounds at 5 μM (method says 10 μM); ratio of O.D. versus vehicle control. Put shortly:
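Freshly prepared splenocytes (1×10^6 cells/well) were cultured for 72 h at 37° C with compound at 10 μM final, with or without PHA (5 μg/ml). Viability was read by MTT (4 h), with absorbance at 570 nm against 690 nm reference. Stimulation index is the OD ratio of treated versus vehicle cultures.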
For orientation: Tetrazolium assays rely on reduction of a dye to a coloured formazan, in cell work by metabolically active cells.

Assay [2] concerns lipopolysaccharide-stimulated peritoneal macrophages. Kind of assay: Production of nitric oxide by lipopolysaccharide-stimulated peritoneal macrophages (Greiss reagent). The format is cell-based. Set-up: Potency (%): % inhibition of nitric oxide production relative to lipopolysaccharide-stimulated macrophages: concentration or dose not given beside the values. Conditions: LPS-stimulated peritoneal macrophages; for Nitric oxide (nitrite) concentration, μM (average ± SD): 24 h, nitrite by Greiss reagent. In outline:
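Macrophages in nitrite-free medium with 0.1% BSA were stimulated with LPS at 0.5–10 ng/ml, some wells also receiving epinephrine, norepinephrine or dopamine at […], for 24 h at 37° C. Nitrite in supernatants was measured with Greiss reagent, 15 min at room temperature, absorbance 532 nm.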

Assay [3] deals with Salmonella typhi ATCC19430. Kind of assay: Antimicrobial MIC, agar dilution. The class given is cell-based. Conditions: Salmonella enterica, read-out: Minimum inhibitory concentration (MIC). (Agar dilution tests growth on a series of plates holding different concentrations.)
The test system of assay [4] is HCT116 (colon) carcinoma cell line. Kind of assay: Anti-tumor properties, MTT. The class given is cell-based. The settings on record: Homo sapiens, HCT-116; read-out: IC50 (μM) HCT116 (colon). Put shortly:
(§1)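 Cells seeded at 10×10^3 per well for 24 h, then exposed to compound in serum-free medium (final up to 100 μM, 0.5% DMSO vehicle) for 72 h in triplicate. Viability by MTT reduction (4 h, SDS solubilised), absorbance 595 nm/ref 620 nm; IC50 from survival curves.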

Assay [5] deals with HepG2 (hepatocellular) carcinoma cell line. Briefly: Anti-tumor properties, MTT. The class given is cell-based. The settings on record: Homo sapiens, HepG2; read-out: IC50 (μM) HepG2 (liver). In outline:
as §1

The test system of assay [6] is MCF7 (breast) carcinoma cell line. Kind of assay: Anti-tumor properties, MTT. The format is cell-based. Conditions: Homo sapiens, MCF7; read-out: IC50 (μM) MCF7 (breast). In outline:
as §1

In assay [7] the test system is A-549 (lung) carcinoma cell line. Kind of assay: Anti-tumor properties, MTT. Conditions: Homo sapiens, A549. The format is cell-based.
The subject of assay [8] is PC3 (prostate) carcinoma cell line. Briefly: Anti-tumor properties, MTT. The class given is cell-based. Conditions: Homo sapiens.
Assay [9] has as its system Staphylococcus aureus ATCC25923. Briefly: Antimicrobial MIC, agar dilution.
Assay [10] deals with Streptococcus pyogenes ATCC19615. Kind of assay: Antimicrobial MIC, agar dilution.
Assay [11] has as its system Pseudomonas aeruginosa ATCC27853. Kind of assay: Antimicrobial MIC, agar dilution.
Assay [12] has as its system Candida albicans (local isolate). Briefly: Antimicrobial MIC, agar dilution. The settings on record: Candida albicans, read-out: Minimum inhibitory concentration (MIC).
[13] abbreviates: ATCC25923, 18 h, read-out: Minimum inhibitory concentration (MIC).
Setting [14] is: ATCC25923, read-out: Minimum inhibitory concentration (MIC).
The mark [15] stands for this setting: ATCC19615, 18 h, read-out: Minimum inhibitory concentration (MIC).
Where [16] appears, read: ATCC19615, read-out: Minimum inhibitory concentration (MIC).
[17] abbreviates: ATCC27853, 18 h, read-out: Minimum inhibitory concentration (MIC).
Where [18] appears, read: ATCC27853, read-out: Minimum inhibitory concentration (MIC).

As to `COc1cc(/C=C/C(=O)CC(=O)/C=C/c2ccc(OC(=O)CCNC(=O)OC(C)(C)C)c(OC)c2)ccc1OC(=O)CCNC(=O)OC(C)(C)C` [Boc-β-Ala-Cur, ((1E,6E)-3,5-dioxohepta-1,6-diene-1,7-diyl)bis(2-methoxy-4,1-phenylene) bis(3-((tert-butoxycarbonyl)amino)propanoate)], the “Stimulation Index (average ± SD)” value in [1] is recorded as 1.70 ± 0.24. The “Potency (%): % inhibition of nitric oxide production relative to lipopolysaccharide-stimulated macrophages” value in assay [2] is given as 32.81%. The “Nitric oxide (nitrite) concentration, μM (average ± SD)” value (shortened to “Nitric oxide … (average ± SD)”) in [2] was determined as 18.35 ± 1.61 µM. Moreover, the MIC in [3] (18 h) is 0.5 µg/mL; in [3], 0.703 µM; in [9] (setting [13]), 0.25 µg/mL; in assay [9] (setting [14]) it was 0.352 µM; in assay [10] (setting [15]) it was 0.25 µg/mL; in [10] (setting [16]), 0.352 µM. The MIC in assay [11] (setting [17]) was found to be 0.25 µg/mL; in [11] (setting [18]), 0.352 µM; in [12] (18 h), 0.5 µg/mL; in [12] it was 0.703 µM. Moreover, the half-inhibitory concentration (IC50) in assay [4] is above 100 µM; in [5], above 100 µM; in assay [6], 13.2 µM; in assay [7], above 100 µM; in assay [8] it was above 100 µM.
As to `COc1cc(/C=C/C(=O)CC(=O)/C=C/c2ccc(OC(=O)[C@@H](N)C(C)C)c(OC)c2)ccc1OC(=O)[C@@H](N)C(C)C.Cl.Cl` [HCl-L-Val-Cur, (2S,2′S)-1,1′-((((1E,6E)-3,5-dioxohepta-1,6-diene-1,7-diyl)bis(2-methoxy-4,1-phenylene))bis(oxy))bis(3-methyl-1-oxobutan-2-aminium) chloride], the “Stimulation Index (average ± SD)” value in assay [1] is listed as 2.05 ± 0.15. Moreover, in assay [2], the “Potency (%): % inhibition of nitric oxide production relative to lipopolysaccharide-stimulated macrophages” value came out at 24.37%. In addition, the “Nitric oxide … (average ± SD)” value in assay [2] is 20.65 ± 0.99 µM. Also, the MIC worked out at 0.125 µg/mL in assay [3] (18 h); 0.195 µM in assay [3]; 0.25 µg/mL in assay [9] (setting [13]); 0.391 µM in assay [9] (setting [14]); 0.125 µg/mL in assay [10] (setting [15]); 0.195 µM in assay [10] (setting [16]). Moreover, the MIC in [11] (setting [17]) was 0.25 µg/mL; in [11] (setting [18]), 0.391 µM; in [12] (18 h), 0.125 µg/mL; in assay [12], 0.195 µM. Moreover, the IC50 in assay [4] stood at 66.5 µM; in assay [5], 39.1 µM; in assay [6] it was 10.4 µM; in assay [7], 20.4 µM; in assay [8] it was 34.6 µM.
For the compound `COc1cc(/C=C/C(=O)CC(=O)/C=C/c2ccc(OC(=O)[C@H](CCC(N)=O)NC(=O)OC(C)(C)C)c(OC)c2)ccc1OC(=O)[C@H](CCC(N)=O)NC(=O)OC(C)(C)C` [Boc-L-Gln-Cur, ((1E,6E)-3,5-dioxohepta-1,6-diene-1,7-diyl)bis(2-methoxy-4,1-phenylene) (2S,2′S)-bis(5-amino-2-((tert-butoxycarbonyl)amino)-5-oxopentanoate)], the “Stimulation Index (average ± SD)” value in assay [1] was 2.14 ± 0.23. In [2], the “Potency (%): % inhibition of nitric oxide production relative to lipopolysaccharide-stimulated macrophages” value was found to be 22.29%. Moreover, the “Nitric oxide … (average ± SD)” value in assay [2] turned out to be 21.22 ± 1.50 µM. The MIC in assay [3] (18 h) came out at 0.125 µg/mL; in [3] it was 0.152 µM; in assay [9] (setting [13]), 0.125 µg/mL; in assay [9] (setting [14]) it was 0.152 µM; in [10] (setting [15]), 0.25 µg/mL; in assay [10] (setting [16]) it was 0.303 µM. Moreover, the MIC in assay [11] (setting [17]) is 1 µg/mL; in assay [11] (setting [18]), 1.21 µM; in assay [12] (18 h), 2 µg/mL; in assay [12] it was 2.42 µM. For the same compound, the 50% inhibitory concentration (IC50) in assay [4] is above 100 µM; in [5], 70.6 µM; in [6], 8.48 µM; in [7] it was 30.9 µM; in [8], 39.1 µM.
Turning to `CC[C@H](C)[C@H](NC(=O)OC(C)(C)C)C(=O)Oc1ccc(/C=C/C(=O)CC(=O)/C=C/c2ccc(OC(=O)[C@@H](NC(=O)OC(C)(C)C)[C@@H](C)CC)c(OC)c2)cc1OC` [Boc-L-Ile-Cur, ((1E,6E)-3,5-dioxohepta-1,6-diene-1,7-diyl)bis(2-methoxy-4,1-phenylene) (2S,2′S,3S,3′S)-bis(2-((tert-butoxycarbonyl)amino)-3-methylpentanoate)], in assay [1], the “Stimulation Index (average ± SD)” value was 2.07 ± 0.10. Also, in [2], the “Potency (%): % inhibition of nitric oxide production relative to lipopolysaccharide-stimulated macrophages” value was determined as 23.82%. Further, the “Nitric oxide … (average ± SD)” value in assay [2] was determined as 20.81 ± 0.68 µM. Besides, the MIC in [3] (18 h) worked out at 0.125 µg/mL; in [3] it was 0.157 µM; in assay [9] (setting [13]), 0.125 µg/mL; in [9] (setting [14]), 0.157 µM; in assay [10] (setting [15]), 0.25 µg/mL; in [10] (setting [16]) it was 0.314 µM. Also, the MIC was found to be 1 µg/mL in assay [11] (setting [17]), 1.26 µM in assay [11] (setting [18]), 2 µg/mL in assay [12] (18 h) and 2.52 µM in assay [12]. Besides, the half-maximal inhibitory concentration (IC50) was above 100 µM in [4]; above 100 µM in [5]; 49.6 µM in assay [6]; above 100 µM in [7]; above 100 µM in assay [8].
With `COc1cc(/C=C/C(=O)CC(=O)/C=C/c2ccc(OC(=O)C(C)NC(=O)OC(C)(C)C)c(OC)c2)ccc1OC(=O)C(C)NC(=O)OC(C)(C)C` (racemic) [Boc-DL-Ala-Cur, ((1E,6E)-3,5-dioxohepta-1,6-diene-1,7-diyl)bis(2-methoxy-4,1-phenylene) bis(2-((tert-butoxycarbonyl)amino)propanoate)], the “Stimulation Index (average ± SD)” value in assay [1] stood at 1.78 ± 0.07. The “Potency (%): % inhibition of nitric oxide production relative to lipopolysaccharide-stimulated macrophages” value in assay [2] is 30.88%. The “Nitric oxide … (average ± SD)” value in [2] was determined as 18.88 ± 0.46 µM. Also, the MIC in assay [3] (18 h) was found to be 0.25 µg/mL; in assay [3], 0.352 µM; in assay [9] (setting [13]) it was 0.25 µg/mL; in [9] (setting [14]), 0.352 µM; in assay [10] (setting [15]), 0.125 µg/mL; in assay [10] (setting [16]) it was 0.176 µM. Moreover, the MIC in assay [11] (setting [17]) came out at 0.25 µg/mL; in [11] (setting [18]) it was 0.352 µM; in [12] (18 h), 0.5 µg/mL; in assay [12], 0.703 µM. In addition, the IC50 in assay [4] was above 100 µM; in assay [5], above 100 µM; in assay [6] it was 34.8 µM; in assay [7], 73.9 µM; in assay [8], above 100 µM.
As for `COc1cc(/C=C/C(=O)CC(=O)/C=C/c2ccc(OC(=O)[C@@H](C)NC(=O)OC(C)(C)C)c(OC)c2)ccc1OC(=O)[C@@H](C)NC(=O)OC(C)(C)C` [Boc-D-Ala-Cur, ((1E,6E)-3,5-dioxohepta-1,6-diene-1,7-diyl)bis(2-methoxy-4,1-phenylene) (2R,2′R)-bis(2-((tert-butoxycarbonyl)amino)propanoate)], the “Stimulation Index (average ± SD)” value in assay [1] is recorded as 2.07 ± 0.12. Further, the “Potency (%): % inhibition of nitric oxide production relative to lipopolysaccharide-stimulated macrophages” value in assay [2] was determined as 23.82%. For the same compound, the “Nitric oxide … (average ± SD)” value in [2] worked out at 20.81 ± 0.82 µM. The MIC in assay [3] (18 h) was found to be 0.25 µg/mL; in [3] it was 0.352 µM; in assay [9] (setting [13]), 0.125 µg/mL; in assay [9] (setting [14]), 0.176 µM; in assay [10] (setting [15]) it was 1 µg/mL; in assay [10] (setting [16]) it was 1.41 µM. In addition, the MIC was found to be 0.25 µg/mL in [11] (setting [17]), 0.352 µM in assay [11] (setting [18]), 0.5 µg/mL in [12] (18 h) and 0.703 µM in assay [12]. The half-inhibitory concentration (IC50) in assay [4] was above 100 µM; in assay [5] it was above 100 µM; in [6], 29.2 µM; in [7] it was 85.4 µM; in assay [8], above 100 µM.

Broadly, the IC50 is the concentration needed to halve the response being measured.
